Results: paper PMC11790914, “Chemogenomics for steroid hormone receptors (NR3)” (Communications Chemistry, 2025)
“And” between values parts separate entries of the source, which are not always exact repeats. Equal entries are not always repeated.

Experiments:
ABL1 = biological target: T1, ABL1 (Homo sapiens, UniProt P00519); assay: Liability panel screening by DSF: ABL1; format: binding; conditions: DSF, 20 µM, n=2; read-out: Mean ΔTM ABL1
T1 construct: made in house
Method in brief: (§1)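 Recombinant protein at 2 µM in 10 mM HEPES pH 7.5 with 500 mM NaCl was mixed with SYPRO Orange (1:1000) and heated at 3 °C/min up to 85 °C. Tm was taken as the Boltzmann-fit inflection point. Shifts are ∆Tm in K from technical duplicates.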

AURKA = biological target: T2, AURKA (Homo sapiens, UniProt O14965); assay: Liability panel screening by DSF: AURKA; format: binding; conditions: DSF, 20 µM, n=2; read-out: Mean ΔTM AURKA
T2 construct: made in house
T2 sequence (O14965 1-403): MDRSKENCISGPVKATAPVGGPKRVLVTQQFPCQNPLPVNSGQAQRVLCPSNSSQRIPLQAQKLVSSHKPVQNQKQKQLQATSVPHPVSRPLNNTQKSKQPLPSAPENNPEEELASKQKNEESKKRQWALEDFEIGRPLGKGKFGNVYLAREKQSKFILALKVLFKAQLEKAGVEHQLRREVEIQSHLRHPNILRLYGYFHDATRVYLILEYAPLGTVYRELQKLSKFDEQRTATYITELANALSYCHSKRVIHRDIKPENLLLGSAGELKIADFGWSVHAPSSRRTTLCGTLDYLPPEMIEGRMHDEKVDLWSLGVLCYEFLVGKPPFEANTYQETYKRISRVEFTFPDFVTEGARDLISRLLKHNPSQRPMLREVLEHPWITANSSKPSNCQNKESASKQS
Method in brief: as §1

CDK2 = biological target: T3, CDK2 (Homo sapiens, UniProt P24941); assay: Liability panel screening by DSF: CDK2; format: binding; conditions: DSF, 20 µM, n=2; read-out: Mean ΔTM CDK2
T3 construct: made in house
Method in brief: as §1

FGFR3 = biological target: T4, FGFR3 (Homo sapiens, UniProt P22607); assay: Liability panel screening by DSF: FGFR3; format: binding; conditions: DSF, 20 µM, n=2; read-out: Mean ΔTM FGFR3
T4 construct: made in house
Method in brief: as §1

GSK3B = biological target: T5, GSK3B (Homo sapiens, UniProt P49841); assay: Liability panel screening by DSF: GSK3B; format: binding; conditions: DSF, 20 µM, n=2; read-out: Mean ΔTM GSK3B
T5 construct: made in house

BRD4 = biological target: T6, BRD4 (Homo sapiens, UniProt O60885); assay: Liability panel screening by DSF: BRD4; format: binding; conditions: DSF, 20 µM, n=2; read-out: Mean ΔTM BRD4
T6 construct: This panel comprised ten highly ligandable kinases and bromodomains; made in house
Method in brief: as §1

BRPF1 = biological target: T7, BRPF1 (Homo sapiens, UniProt P55201); assay: Liability panel screening by DSF: BRPF1; format: binding; conditions: DSF, 20 µM, n=2; read-out: Mean ΔTM BRPF1
T7 construct: This panel comprised ten highly ligandable kinases and bromodomains; made in house
T7 sequence (P55201 628-732 limits assumed): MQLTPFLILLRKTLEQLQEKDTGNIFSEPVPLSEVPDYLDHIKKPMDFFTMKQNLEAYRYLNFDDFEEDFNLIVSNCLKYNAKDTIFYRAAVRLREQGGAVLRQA
Method in brief: as §1

CSNK1D = biological target: T8, CSNK1D (Homo sapiens, UniProt P48730); assay: Liability panel screening by DSF: CSNK1D; format: binding; conditions: DSF, 20 µM, n=2; read-out: Mean ΔTM CSNK1D
T8 construct: made in house
Method in brief: as §1

MAPK1 = biological target: T9, MAPK1 (Homo sapiens, UniProt P28482); assay: Liability panel screening by DSF: MAPK1; format: binding; conditions: DSF, 20 µM, n=2; read-out: Mean ΔTM MAPK1
T9 construct: made in house
Method in brief: as §1

TRIM24 = biological target: T10, TRIM24 (Homo sapiens, UniProt O15164); assay: Liability panel screening by DSF: TRIM24; format: binding; conditions: DSF, 20 µM, n=2; read-out: Mean ΔTM TRIM24
T10 construct: This panel comprised ten highly ligandable kinases and bromodomains; made in house
T10 sequence (O15164 899-1004 limits assumed): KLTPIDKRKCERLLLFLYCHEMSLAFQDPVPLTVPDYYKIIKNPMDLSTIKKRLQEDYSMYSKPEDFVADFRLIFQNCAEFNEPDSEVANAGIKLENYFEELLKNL
Method in brief: as §1

NR3C1 (GR) = conditions: (lit.); ref Supplementary Table 1; read-out: Potency [nM] EC50, NR3C1 (GR); cited from earlier work
[1] = other targets with annotated bioactivities at ≤10 µM in previously published dataset; cited from earlier work
HEK293T cells [2] = assay: Cytotoxicity: metabolic activity (WST-8 / CCK-8 assay); conditions: 1 µM, single replicates
HEK293T cells [3] = assay: Cytotoxicity: growth-rate (change in confluence over 24 h); conditions: 1 µM, normalized to 0.1% DMSO control, single replicates (n=1...)
HEK293T cells [4] = assay: Cytotoxicity: apoptosis induction (caspase-3/7 DEVD fluorogenic DNA dye); conditions: 1 µM, single replicates
HEK293T cells [5] = assay: Cytotoxicity: necrosis induction (red fluorescent dye for permeable plasma membranes); format: cell-based; conditions: 1 µM, 24 h, necrotic cell count normalized to 0.1% DMSO, single replicates;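 further: compounds applied in DMEM high glucose with 0.1% FCS and 0.1% DMSO, necrotic HEK293T cells counted by red staining of cells whose plasma membranes had become permeable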
Gal4-VP16 = format: cell-based; conditions: 1 µM; vs. DMSO ctrl; single replicates n=1-3
Method: Five hours after transfection, the cells were incubated with the NR3 CG compound candidates at the recommended concentrations by changing the medium to Opti-MEM supplemented with penicillin (100 µ/mL) and streptomycin (100 µg/mL) additionally containing 0.1% DMSO and the respective test compound or 0.1% DMSO alone as untreated control. Firefly (reporter) and renilla (control) luminescence were measured after 14–16 h incubation using the Dual-Glo® Luciferase Assay System (Promega, Fitchburg, Wisconsin, USA; #E2980) according to manufacturer’s protocol on a Tecan Spark® 10M multimode microplate reader (Tecan Group AG, Männedorf, Switzerland). To obtain relative light units (RLU) firefly luminescence was divided by renilla luminescence and multiplied by 1000. Fold activation was obtained by dividing the mean RLU of a test sample by the mean RLU of the DMSO (0.1%) control. Experiments were performed in singlets in at least three biologically independent repeats.
are labeled according to their mode of action (yellow - agonist, grey - antagonist, grey with label D - degrader) and grouped by their
NR3 subfamily main targets.
reporter activity at the indicated concentrations expressed as mean fold reporter gene activity (n=3).

[6] = test system: NF-κB activity in HEK293 NF-κB reporter cells; assay: NF-kB activity assay (GFP reporter, ionomycin/PMA); format: cell-based; conditions: n=3
Method in brief: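 HEK293 NF-κB GFP reporter cells given compound in 0.1% DMSO for 4 h, then stimulated with ionomycin 100 ng/mL plus PMA 10 ng/mL. Imaged every 90 min over 24 h; GFP-positive cell count normalized to confluence, three independent biological replicates.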

[7] = test system: ATF6 activity in Hela ATF6 reporter cells; assay: Endoplasmic reticulum stress assay (ATF6 Renilla luciferase reporter, tunicamycin); format: cell-based; conditions: Homo sapiens, HeLa, 1 µM, single replicates n=1 to n=5; read-out: ER stress [rel. ATF6 activity]
Method in brief: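 HeLa ATF6 Renilla reporter cells were pretreated 4 h with compounds in 0.1% DMSO, then stimulated with tunicamycin (100 ng/mL) for 18 h. Renilla luminescence (DualGlo) was normalized to 0.1% DMSO control; five independent experiments.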

[8] = HEK293T, 24 h, WST-8, normalized to 0.1% DMSO
[9] = HEK293T, 24 h, apoptotic cell count normalized to 0.1% DMSO

T5 sequence (P49841 whole entry, species assumed): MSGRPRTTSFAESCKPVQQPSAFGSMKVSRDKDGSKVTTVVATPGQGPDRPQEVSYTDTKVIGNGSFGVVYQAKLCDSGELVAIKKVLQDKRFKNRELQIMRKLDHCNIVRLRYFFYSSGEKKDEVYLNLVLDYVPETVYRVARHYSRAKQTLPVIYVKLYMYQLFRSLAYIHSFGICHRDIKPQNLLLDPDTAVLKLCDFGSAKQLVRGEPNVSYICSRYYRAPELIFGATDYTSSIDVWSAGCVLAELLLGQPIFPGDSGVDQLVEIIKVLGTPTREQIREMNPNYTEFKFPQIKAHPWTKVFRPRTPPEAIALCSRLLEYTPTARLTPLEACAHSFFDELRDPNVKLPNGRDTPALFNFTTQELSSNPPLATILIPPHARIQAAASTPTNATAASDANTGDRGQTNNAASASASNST
T1 sequence (P00519 whole entry, species assumed): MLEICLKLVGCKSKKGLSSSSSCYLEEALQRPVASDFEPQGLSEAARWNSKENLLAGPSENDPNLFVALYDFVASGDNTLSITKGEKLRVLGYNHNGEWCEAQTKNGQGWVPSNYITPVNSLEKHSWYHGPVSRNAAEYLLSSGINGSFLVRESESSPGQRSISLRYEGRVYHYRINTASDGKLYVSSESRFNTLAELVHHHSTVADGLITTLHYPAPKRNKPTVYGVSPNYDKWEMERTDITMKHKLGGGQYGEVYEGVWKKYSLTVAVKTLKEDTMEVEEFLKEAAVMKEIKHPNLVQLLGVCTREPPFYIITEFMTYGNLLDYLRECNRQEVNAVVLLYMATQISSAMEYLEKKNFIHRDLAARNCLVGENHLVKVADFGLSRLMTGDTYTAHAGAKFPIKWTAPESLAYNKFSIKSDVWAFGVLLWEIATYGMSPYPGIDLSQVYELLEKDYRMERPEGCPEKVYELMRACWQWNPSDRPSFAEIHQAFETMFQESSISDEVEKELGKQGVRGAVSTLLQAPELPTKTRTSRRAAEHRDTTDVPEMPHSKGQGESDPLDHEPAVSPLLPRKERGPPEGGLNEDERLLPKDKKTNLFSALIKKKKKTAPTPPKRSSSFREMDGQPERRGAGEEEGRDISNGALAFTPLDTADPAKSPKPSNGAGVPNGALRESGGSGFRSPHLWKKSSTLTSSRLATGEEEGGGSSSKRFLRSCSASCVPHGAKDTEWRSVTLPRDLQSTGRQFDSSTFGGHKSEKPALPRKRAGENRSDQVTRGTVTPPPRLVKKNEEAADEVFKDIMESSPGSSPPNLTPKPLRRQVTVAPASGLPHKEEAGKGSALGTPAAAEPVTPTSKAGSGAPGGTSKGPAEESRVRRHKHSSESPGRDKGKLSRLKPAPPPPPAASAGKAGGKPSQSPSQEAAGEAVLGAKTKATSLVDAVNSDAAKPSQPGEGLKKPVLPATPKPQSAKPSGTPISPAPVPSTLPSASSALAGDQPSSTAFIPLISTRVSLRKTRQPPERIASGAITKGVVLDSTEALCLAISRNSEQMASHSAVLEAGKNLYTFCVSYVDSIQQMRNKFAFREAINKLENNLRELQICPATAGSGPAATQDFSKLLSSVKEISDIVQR
T4 sequence (P22607 23-806, species assumed): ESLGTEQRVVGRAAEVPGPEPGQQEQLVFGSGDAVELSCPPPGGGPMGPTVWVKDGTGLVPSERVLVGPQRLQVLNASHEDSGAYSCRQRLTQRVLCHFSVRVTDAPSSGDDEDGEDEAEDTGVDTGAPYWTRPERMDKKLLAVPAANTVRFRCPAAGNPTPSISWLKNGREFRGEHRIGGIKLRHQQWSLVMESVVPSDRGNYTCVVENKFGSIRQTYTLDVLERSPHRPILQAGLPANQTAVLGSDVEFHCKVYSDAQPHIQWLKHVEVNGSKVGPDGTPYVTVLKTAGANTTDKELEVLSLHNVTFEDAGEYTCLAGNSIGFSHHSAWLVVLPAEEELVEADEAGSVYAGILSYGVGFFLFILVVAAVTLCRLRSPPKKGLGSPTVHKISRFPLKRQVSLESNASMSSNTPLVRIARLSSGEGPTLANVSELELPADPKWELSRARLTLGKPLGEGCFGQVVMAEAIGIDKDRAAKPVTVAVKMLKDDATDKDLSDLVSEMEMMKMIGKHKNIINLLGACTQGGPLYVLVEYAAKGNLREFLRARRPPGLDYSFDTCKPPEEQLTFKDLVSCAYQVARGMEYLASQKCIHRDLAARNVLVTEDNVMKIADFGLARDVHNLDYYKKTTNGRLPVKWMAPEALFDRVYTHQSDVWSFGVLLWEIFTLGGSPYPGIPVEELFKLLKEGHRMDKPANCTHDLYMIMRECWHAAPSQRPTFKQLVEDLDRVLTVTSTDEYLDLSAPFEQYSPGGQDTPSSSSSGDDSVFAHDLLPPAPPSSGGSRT
T9 sequence (P28482 whole entry, species assumed): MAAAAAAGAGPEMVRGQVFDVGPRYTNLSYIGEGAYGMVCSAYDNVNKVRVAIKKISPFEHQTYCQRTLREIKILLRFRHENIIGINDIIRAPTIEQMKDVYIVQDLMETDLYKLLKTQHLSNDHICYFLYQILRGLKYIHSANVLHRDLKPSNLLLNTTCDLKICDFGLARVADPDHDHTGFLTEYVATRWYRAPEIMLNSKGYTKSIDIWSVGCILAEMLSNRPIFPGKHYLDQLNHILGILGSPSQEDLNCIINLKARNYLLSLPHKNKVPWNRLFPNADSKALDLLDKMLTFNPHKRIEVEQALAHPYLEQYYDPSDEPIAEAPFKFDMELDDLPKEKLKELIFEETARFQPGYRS
T8 sequence (P48730 whole entry, species assumed): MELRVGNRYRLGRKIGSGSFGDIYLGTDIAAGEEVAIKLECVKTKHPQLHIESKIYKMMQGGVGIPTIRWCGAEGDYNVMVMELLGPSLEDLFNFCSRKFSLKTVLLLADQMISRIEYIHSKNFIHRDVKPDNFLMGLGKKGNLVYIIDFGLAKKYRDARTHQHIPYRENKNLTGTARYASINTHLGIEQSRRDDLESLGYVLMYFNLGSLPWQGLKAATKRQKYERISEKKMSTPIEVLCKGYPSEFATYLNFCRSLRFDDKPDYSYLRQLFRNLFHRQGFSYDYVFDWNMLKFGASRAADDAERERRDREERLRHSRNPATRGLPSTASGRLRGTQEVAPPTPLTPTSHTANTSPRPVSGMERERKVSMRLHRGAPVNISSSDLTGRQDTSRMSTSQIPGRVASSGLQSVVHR

SMILES	ΔTm at 20 µM (ABL1)	ΔTm at 20 µM (AURKA)	ΔTm at 20 µM (CDK2)	ΔTm at 20 µM (FGFR3)	ΔTm at 20 µM (GSK3B)	ΔTm at 20 µM (BRD4)	ΔTm at 20 µM (BRPF1)	ΔTm at 20 µM (CSNK1D)	ΔTm at 20 µM (MAPK1)	ΔTm at 20 µM (TRIM24)	Growth rate [GR] (HEK293T cells [3])	Necrosis induction [NI] (HEK293T cells [5])	VP16 control [fold reporter gene activity] (Gal4-VP16)	Mean NFκB response ([6]; 1 µM, 1,5 h)	Mean NFκB response ([6]; 1 µM, 4,5 h)	Mean NFκB response ([6]; 1 µM, 7,5 h)	Mean NFκB response ([6]; 1 µM, 10,5 h)	Mean NFκB response ([6]; 1 µM, 13,5 h)	Mean NFκB response ([6]; 1 µM, 16,6 h)	Mean NFκB response ([6]; 1 µM, 19,5 h)	further results
CCC(=O)O[C@]1(C(=O)SCF)[C@H](C)C[C@H]2[C@@H]3C[C@H](F)C4=CC(=O)C=C[C@]4(C)[C@@]3(F)[C@@H](O)C[C@@]21C [Fluticasone propionate]	0.19 °C	0.09 °C	0.15 °C	0.32 °C	-0.55 °C	-0.24 °C	-0.69 °C	-0.0152 °C	-0.034 °C	-0.08 °C	0.78 and 1.00 and 1.07 and 0.88 (2×) and 0.82										EC50 (NR3C1 (GR)): 1 nM; Reason for exclusion: number of annotated off-targets [1]: > 5 off-targets; Metabolic activity [MA] (HEK293T cells [2]; DMSO 0.1% = 1.00): 0.94 and 0.83 and 1.03 and 1.06 and 1.10 and 1.04; Apoptosis induction [AI] (HEK293T cells [4]; DMSO 0.1% = 1.00): 0.81 and 1.24
Oc1ccc(-c2c(-c3ccccc3)nn3c(C(F)(F)F)cc(C(F)(F)F)nc23)cc1 [PHTPP]	2.06 °C	-0.53 °C	0.46 °C	1.15 °C	-0.0558 °C	-1.27 °C	-1.38 °C	0.39 °C	-0.2 °C	-0.6 °C	0.97 and 0.45 and 1.07 and 1.62 and 1.13 and 0.53 and 1.06 and 0.18 and 2.38 and 3.71	1.05 and 0.87 and 0.89 and 1.10	0.97 fold reporter gene activity and 1.04 fold reporter gene activity and 1.08 fold reporter gene activity	2680.27 GFP+-cells/confluence ∙ 1000	3558.89 GFP+-cells/confluence ∙ 1000	8794.33 GFP+-cells/confluence ∙ 1000	18394.67 GFP+-cells/confluence ∙ 1000	26267.00 GFP+-cells/confluence ∙ 1000	32070.00 GFP+-cells/confluence ∙ 1000	36033.33 GFP+-cells/confluence ∙ 1000	Mean NFκB response ([6]; 1 µM, 22,5 h): 39210.00 GFP+-cells/confluence ∙ 1000; Mean NFκB response ([6]; 1 µM, 3 h): 2926.71 GFP+-cells/confluence ∙ 1000; Mean NFκB response ([6]; 1 µM, 6 h): 4822.41 GFP+-cells/confluence ∙ 1000; Mean NFκB response ([6]; 1 µM, 9 h): 14065.00 GFP+-cells/confluence ∙ 1000; Mean NFκB response ([6]; 1 µM, 12 h): 22714.33 GFP+-cells/confluence ∙ 1000; Mean NFκB response ([6]; 1 µM, 15 h): 29343.33 GFP+-cells/confluence ∙ 1000; Mean NFκB response ([6]; 1 µM, 18 h): 34043.33 GFP+-cells/confluence ∙ 1000; Mean NFκB response ([6]; 1 µM, 21 h): 37940.00 GFP+-cells/confluence ∙ 1000; Mean NFκB response ([6]; 1 µM, 24 h): 40376.67 GFP+-cells/confluence ∙ 1000; activity at 1 µM [7]: 100%; Metabolic activity [MA] (HEK293T cells [2]; [8]): 1.07 and 1.08 and 1.01 and 1.13 and 1.04 (2×) and 0.95 and 1.05; Apoptosis induction [AI] (HEK293T cells [4]; [9]): 0.81 and 1.09 and 0.92 and 1.05 and 0.26 and 0.21
CC(=O)O[C@]1(C(C)=O)CC[C@H]2[C@@H]3CCC4=CC(=O)CCC4=C3[C@@H](c3ccc(N(C)C)cc3)C[C@@]21C [Ulipristal acetate]	0.29 °C	-1.14 °C	-0.32 °C	-0.057 °C	-0.83 °C	-2.72 °C	-2.65 °C	0.22 °C	-0.0546 °C	-1.79 °C	0.78 and 1.52 and 1.08 and 1.00 (2×) and 1.04 and 0.73 and 0.60 and 1.80 and 3.99	1.05 and 1.11 and 0.95 and 0.92	1.05 fold reporter gene activity and 1.09 fold reporter gene activity and 1.04 fold reporter gene activity	2644.31 GFP+-cells/confluence ∙ 1000	3036.67 GFP+-cells/confluence ∙ 1000	6043.33 GFP+-cells/confluence ∙ 1000	16570.00 GFP+-cells/confluence ∙ 1000	25096.67 GFP+-cells/confluence ∙ 1000	31636.67 GFP+-cells/confluence ∙ 1000	36313.33 GFP+-cells/confluence ∙ 1000	Mean NFκB response ([6]; 1 µM, 22,5 h): 39910.00 GFP+-cells/confluence ∙ 1000; Mean NFκB response ([6]; 1 µM, 3 h): 2710.00 GFP+-cells/confluence ∙ 1000; Mean NFκB response ([6]; 1 µM, 6 h): 3846.67 GFP+-cells/confluence ∙ 1000; Mean NFκB response ([6]; 1 µM, 9 h): 10723.33 GFP+-cells/confluence ∙ 1000; Mean NFκB response ([6]; 1 µM, 12 h): 21213.33 GFP+-cells/confluence ∙ 1000; Mean NFκB response ([6]; 1 µM, 15 h): 28280.00 GFP+-cells/confluence ∙ 1000; Mean NFκB response ([6]; 1 µM, 18 h): 34176.67 GFP+-cells/confluence ∙ 1000; Mean NFκB response ([6]; 1 µM, 21 h): 38276.67 GFP+-cells/confluence ∙ 1000; Mean NFκB response ([6]; 1 µM, 24 h): 41050.00 GFP+-cells/confluence ∙ 1000; activity at 1 µM [7]: 102%; Metabolic activity [MA] (HEK293T cells [2]; [8]): 1.04 and 0.97 and 0.99 (2×) and 1.03 (2×) and 0.96 and 1.08; Apoptosis induction [AI] (HEK293T cells [4]; [9]): 0.98 (2×) and 0.83 and 1.37 and 1.27 and 0.92
